In one experiment the test system is PC-3. The experiment in a line: Cytotoxicity screening, PC-3 cells. Format: cell-based. Conditions: Homo sapiens; for inhibition at 10 µM: treatment at 10 μM, 24 h treatment then 96 h incubation, read-out: Inhibition: percent cell death normalized against controls; for IC50: read-out: IC50, drug dose to inhibit 50% cell proliferation. The procedure:
(§1) Tumor cells were maintained as monolayers in 75-cm^2 tissue culture flasks using their respective cell culture medium containing 10% fetal bovine serum and 2 mM L-glutamine. The cells were incubated at 37° C. under a humidified 5% CO2: air atmosphere (standard conditions) for five days. The cells were harvested when in mid-log growth and their concentration was determined using a particle counter (Beckman Coulter, Inc, Fullerton, Calif.). An aliquot of the cell suspension was diluted in culture medium for delivery to a 24-well tissue culture plate at a range of 10,000 to 30,000 per 1 mL per well. After 24 h, quadruplicate wells were inoculated with either vehicle (untreated controls) or test compounds at various concentrations. After 24 h of incubation, the wells were aspirated, washed once with 1 mL PBS, and refilled with 1 mL treatment-free medium. Following a 96-h incubation under the initial treatment conditions, the viable cells were counted and the numbers were normalized to the percent of untreated controls. The extent of cytotoxicity in treated wells as compared to the controls and the dose that inhibits 50% cell proliferation (IC50) was calculated.

A further experiment concerns Panc-1. Nature of the experiment: Cytotoxicity screening, Panc-1 cells. Format: cell-based. Conditions: Homo sapiens; for inhibition at 10 µM: Panc-1, treatment at 10 μM, 24 h treatment then 96 h incubation, read-out: Inhibition: percent cell death normalized against controls. How it is done:
as §1

Another experiment has as its system MIA PaCa-2. Nature of the experiment: Cytotoxicity screening, MIA PaCa-2 cells. Format: cell-based. The following applies: Homo sapiens; for inhibition at 10 µM: treatment at 10 μM, 24 h treatment then 96 h incubation; for IC50: read-out: IC50, drug dose to inhibit 50% cell proliferation. How it is done:
as §1

A further experiment has as its system LS174-T. The experiment in a line: Cytotoxicity screening, LS174-T cells. Format: cell-based. Conditions: Homo sapiens, LS174T; for inhibition at 10 µM: treatment at 10 μM, 24 h treatment then 96 h incubation; for IC50: read-out: IC50, drug dose to inhibit 50% cell proliferation. The procedure:
as §1

For experiment [1], the system named is LS174-T human colon carcinoma tumors. The experiment in a line: Evaluation of antitumor activity, nude mouse model of LS174-T tumors. The experiment is classed as in vivo. Conditions: female nude mice, sc LS174-T tumors, iv qdx5; untreated control 15 days; n=8, p=0.043. The procedure:
Antitumor activity of compound II-e was evaluated using a nude mouse model of Ls174-T human colon cancer tumors. Female nude mice were implanted subcutaneously (sc) with LS174-T human colon carcinoma cells (10^7 cells/mouse). When tumors reached a cross diameter of 7 mm, the mice were randomized into 2×8 groups and were injected iv with either the vehicle (5% dextrose solution containing 20% 50:50, Cremophore EL: ethanol)) or a solution II-e in the same solvent system. The protocol used was qdx5 injections every 24 h. Tumor volumes were monitored by caliper measurement 3× weekly (see FIG. 1 wherein circles correspond to inactivated compound IIe; triangles correspond to vehicle; and squares correspond to compound II-e).

Where [2] appears, read: read-out: Inhibition: percent cell death normalized against controls.
[3] abbreviates: measured at 7.5 μM, read-out: Inhibition: percent cell death normalized against controls.

7 compounds from patent publication US8686190B2, “Bis-aromatic anticancer agents” (The UAB Research Foundation, priority 2008, dated 2014) can be followed below.

For orientation: inhibition means the percentage by which the read-out fell short of the control.

With `OC(CSCC(O)c1ccccc1)c1ccccc1` (stereo not shown) [II-a], the inhibition at 10 µM with PC-3 was 5 ± 9%.
For `COc1cccc(C(O)CSCC(O)c2cccc(OC)c2OC)c1OC` (stereo not shown) [II-b], the inhibition at 10 µM in the experiment with PC-3 was 8 ± 4%; with Panc-1 it was 0%; in the experiment on MIA PaCa-2 (setting [2]), 0%; in the experiment with LS174-T (setting [2]), 0%.
Consider `OC(CSCC(O)c1ccc(OC(F)(F)F)cc1)c1ccc(OC(F)(F)F)cc1` (stereo not shown) [II-c], for which the inhibition at 10 µM was found to be 40 ± 7% with PC-3, 43 ± 9% in the experiment on Panc-1, 34 ± 14% with MIA PaCa-2 (setting [2]) and 13 ± 7% in the experiment on LS174-T (setting [2]).
For `OC(CSCC(O)c1ccc(C(F)(F)F)cc1)c1ccc(C(F)(F)F)cc1` (stereo not shown) [II-d] the same measures were 43 ± 4%, 27 ± 5%, 11 ± 4% and 33 ± 6%.
As to `CC(=O)C(CSCC(C(C)=O)c1cc(C(F)(F)F)cc(C(F)(F)F)c1)c1cc(C(F)(F)F)cc(C(F)(F)F)c1` (stereo not shown) [II-e bis-OAc, 4,4′-thiobis(3-(3,5-bis(trifluoromethyl)phenyl)butan-2-one)], the inhibition at 10 µM in the experiment on MIA PaCa-2 (setting [2]) turned out to be 29 ± 6%.
For the compound `OC(CSCC(O)c1cc(C(F)(F)F)cc(C(F)(F)F)c1)c1cc(C(F)(F)F)cc(C(F)(F)F)c1` (stereo not shown) [II-e], in experiment [1], the Tumor doubling time worked out at 30 days. The IC50 in the experiment on PC-3 was determined as 4.4 µM; in the experiment with Panc-1 (PANC-1, read-out: IC50, drug dose to inhibit 50% cell proliferation) it was 6.3 µM; in the experiment with MIA PaCa-2, 3.7 µM; in the experiment with LS174-T it was 3.6 µM. For the same compound, the inhibition at 10 µM with PC-3 turned out to be 78 ± 4%; in the experiment on Panc-1 it was 80 ± 4%; in the experiment on MIA PaCa-2 (setting [2]), 94 ± 2%; with LS174-T (setting [2]), 96%. Also, the inhibition at 7.5 µM with MIA PaCa-2 (setting [3]) turned out to be 94 ± 2%; in the experiment on LS174-T (setting [3]) it was 96 ± 1%.
For `COc1cc(/C=C/C(=O)CC(=O)/C=C/c2ccc(O)c(OC)c2)ccc1O` [curcumin, reference compound], the IC50 in the experiment with PC-3 worked out at 12 µM; in the experiment on MIA PaCa-2, 9 µM; with LS174-T, 6.5 µM.
